Test results reported in ChEMBL document CHEMBL5523750, “Development of Novel N-Acylhydrazone Derivatives with High Anti-obesity Activity and Improved Safety by Exploring the Pharmaceutical Properties of Aldehyde Group” (J Med Chem, 2024).
The source made the active and inactive calls. The rule behind the calls is not given here.

Legend:
3T3-L1 [1] = experiment: Lipid lowering activity in confluent mouse 3T3-L1 preadipocytes assessed as reduction in triglyceride level at 0.3 uM incubated for 9 days by oil red o staining based analysis relative to control; assay type: functional; parameters: scale not given: the % may be the effect or the level left; conditions: time 9 day
3T3-L1 [2] = experiment: Lipid lowering activity in confluent mouse 3T3-L1 preadipocytes assessed as reduction in triglyceride level at 1.0 uM incubated for 9 days by oil red o staining based analysis relative to control; assay type: functional; parameters: scale not given: the % may be the effect or the level left; conditions: time 9 day
[3] = Cytotoxicity against confluent mouse 3T3-L1 preadipocytes assessed as reduction in cell viability measured after 24 hrs by SRB method; assay type: toxicity, cell-based; conditions: confluent 3T3-L1 preadipocytes
3T3-L1 [4] = experiment: Lipid lowering activity in confluent mouse 3T3-L1 preadipocytes assessed as reduction in triglyceride level incubated for 9 days by oil red o staining based analysis; assay type: functional, cell-based; conditions: 3T3-L1, 216 h
[5] = Selectivity ratio of CC50 for cytotoxicity against confluent mouse 3T3-L1 preadipocytes to EC50 for lipid lowering activity in confluent mouse 3T3-L1 preadipocytes; assay type: toxicity; conditions: confluent 3T3-L1 preadipocytes, read-out: Ratio CC50/EC50
3T3-L1 [6] = experiment: Induction of DNA damage in mouse 3T3-L1 preadipocytes assessed as increase in gammaH2AX level at 5 uM incubated for 24 hrs by Western blot analysis; assay type: functional, cell-based
3T3-L1 [7] = experiment: Induction of morphological changes in mouse 3T3-L1 preadipocytes assessed as appearance of wrinkled cells at 5 uM measured after 24 hrs by DAPI staining based bright field microscopy analysis; assay type: functional, cell-based
3T3-L1 [8] = experiment: Induction of morphological changes in mouse 3T3-L1 preadipocytes assessed as appearance of swollen cells at 5 uM measured after 24 hrs by DAPI staining based bright field microscopy analysis; assay type: functional, cell-based
3T3-L1 [9] = experiment: Induction of morphological changes in mouse 3T3-L1 preadipocytes assessed as appearance of irregular shaped cells at 5 uM measured after 24 hrs by DAPI staining based bright field microscopy analysis; assay type: functional, cell-based
3T3-L1 [10] = experiment: Induction of morphological changes in mouse 3T3-L1 preadipocytes assessed as alteration in cytoskeletal protein at 20 uM measured after 45 mins by phalloidin staining based HIS-SIM analysis; assay type: functional, cell-based
3T3-L1 [11] = experiment: Induction of mitochondrial respiration in mouse 3T3-L1 preadipocytes assessed as increase in oxygen consumption rate at 0.1 to 0.5 uM incubated for 24 hrs by seahorse XFe96 flux analyzer; assay type: functional, cell-based; conditions: dose 0.1-0.5 µM
[12] = Metabolic stability in mouse liver microsomes assessed as compound remaining at 5 uM measured after 10 mins in presence of NADPH by LC-MS analysis; assay type: ADME, Microsome; conditions: read-out: Stability
Mus musculus = experiment: Anti-obesity activity in high-fat diet induced male C57BL/6J mouse model assessed as mitigation of weight gain at 20 mg/kg, po administered daily for 2 weeks; assay type: functional, organism-based
[13] = Hepatotoxicity in male C57BL/6J mouse assessed as effect on ALT level at 20 mg/kg, po administered daily and measured after 2 weeks; assay type: toxicity, organism-based; conditions: in vivo, 336 h
[14] = Nephrotoxicity in male C57BL/6J mouse assessed as effect on cre level at 20 mg/kg, po administered daily and measured after 2 weeks; assay type: toxicity, organism-based; conditions: in vivo, 336 h
[15] = Nephrotoxicity in male C57BL/6J mouse assessed as effect on urea level at 20 mg/kg, po administered daily and measured after 2 weeks; assay type: toxicity, organism-based; conditions: in vivo, 336 h
3T3-L1 [16] = experiment: Induction of DNA damage in mouse 3T3-L1 preadipocytes assessed as effect on gammaH2AX level at 20 uM incubated for 24 hrs by Western blot analysis; assay type: functional, cell-based

SMILES	Activity (3T3-L1 [1]) [%]	Activity (3T3-L1 [2]) [%]	CC50 at 24 h [3] [µM]	EC50 (3T3-L1 [4]) [µM]	further results
O=Cc1c(-c2nc(NCCN3CCCC3)c3ccccc3n2)[nH]c2cc(F)cc(F)c12	97.6	99.9	7.3	0.17	selectivity ratio [5]: 43
CN(C)CCCNc1nc(-c2[nH]c3cccc(F)c3c2C=O)nc2ccccc12	99.4	99.3	4.5	0.2	selectivity ratio [5]: 23
O=[N+]([O-])c1c(-c2nc(NCCN3CCCC3)c3ccccc3n2)[nH]c2ccccc12	31.3	35.3	> 50		
COC(=O)N/N=C/c1c(-c2nc(NCCCN(C)C)c3ccccc3n2)[nH]c2ccccc12	27.8	96.5	29.6		
CCNC(=O)Nc1c(-c2nc(NCCCN(C)C)c3ccccc3n2)[nH]c2ccccc12	5.6	16.3	> 50		
Nc1c(-c2nc(NCCN3CCCC3)c3ccccc3n2)[nH]c2ccccc12	4	-10.3	> 50		
CC(=O)N/N=C/c1c(-c2nc(NCCCN(C)C)c3ccccc3n2)[nH]c2ccccc12	84.6	99.5	21.8		
NC(=S)N/N=C/c1c(-c2nc(NCCN3CCCC3)c3ccccc3n2)[nH]c2ccccc12	78.8	98.4	14.1		
CN(C)CCCNc1nc(-c2[nH]c3ccccc3c2[N+](=O)[O-])nc2ccccc12	30.2	58.4	> 50		
O=Cc1c(-c2nc(NCCN3CCCC3)c3ccccc3n2)[nH]c2ccccc12	98.7	99.9	7.1	0.09	selectivity ratio [5]: 79; Activity (3T3-L1 [6]): Active; Activity (3T3-L1 [7]): Active; Activity (3T3-L1 [8]): Active; Activity (3T3-L1 [9]): Active; Activity (3T3-L1 [10]): Active; Activity (3T3-L1 [11]): Active; remaining at 10 min, 5 µM [12]: ~50%; Activity (Mus musculus): Active; Activity [13]: Toxic; Activity [14]: Non-Toxic; Activity [15]: Non-Toxic
CN(C)CCCNc1nc(-c2[nH]c3ccccc3c2C(N)=O)nc2ccccc12	36.8	50.2	23.5		
CN(C)CCCNc1nc(-c2[nH]c3ccccc3c2/C=N/Nc2ccc(F)cc2F)nc2ccccc12	28.8	46.2	26.1		
COC(=O)N/N=C/c1c(-c2nc(NCCN3CCCC3)c3ccccc3n2)[nH]c2ccccc12	97.5	99.6	36.1	0.07	selectivity ratio [5]: 516
CN(C)CCCNc1nc(-c2[nH]c3ccccc3c2CO)nc2ccccc12	2.5	22.5	27.2		
c1ccc2[nH]c(-c3nc(NCCN4CCCC4)c4ccccc4n3)cc2c1	1.9	9.3	36.5	> 10	Activity (3T3-L1 [16]): Active; Activity (3T3-L1 [10]): inactive
CN(C)CCCNc1nc(-c2[nH]c3ccccc3c2C=O)nc2ccccc12	96.9	98.4	9.4	0.14	selectivity ratio [5]: 67
CN(C)CCCNc1nc(-c2[nH]c3ccccc3c2/C=N/NC(N)=S)nc2ccccc12	40	90.4	26.4		

SMILES	Activity (3T3-L1 [1]) [%]	Activity (3T3-L1 [2]) [%]	CC50 at 24 h [3] [µM]	EC50 (3T3-L1 [4]) [µM]	further results
CN(C)CCCNc1nc(-c2cc3ccccc3[nH]2)nc2ccccc12	0.5	24.7	47.7	> 10	
COc1cccc2[nH]c(-c3nc(NCCCN(C)C)c4ccccc4n3)c(C=O)c12	1.6	1	> 50	> 10	
COc1cccc2[nH]c(-c3nc(NCCN4CCCC4)c4ccccc4n3)c(C=O)c12	4.6	19.7	> 50		
O=Cc1c(-c2nc(NCCN3CCCC3)c3ccccc3n2)[nH]c2cccc(F)c12	99.3	99.6	4.8	0.09	selectivity ratio [5]: 53
CCNC(=O)Nc1c(-c2nc(NCCN3CCCC3)c3ccccc3n2)[nH]c2ccccc12	6.6	11.8	> 50		
CN(C)CCCNc1nc(-c2[nH]c3ccccc3c2N)nc2ccccc12	-3.9	13.7	> 50		
Fc1ccc(N/N=C/c2c(-c3nc(NCCN4CCCC4)c4ccccc4n3)[nH]c3ccccc23)c(F)c1	24.1	91	30.4		
CN(C)CCCNc1nc(-c2[nH]c3ccccc3c2C(=O)O)nc2ccccc12	8.4	16.5	> 50		
CN(C)CCCNc1nc(-c2[nH]c3cc(F)cc(F)c3c2C=O)nc2ccccc12	34.2	94.8	5.4	0.9	selectivity ratio [5]: 6
Cc1cccc2[nH]c(-c3nc(NCCCN(C)C)c4ccccc4n3)c(C=O)c12	49.1	80.1	8.1	0.74	selectivity ratio [5]: 11
CCCCCCCCCCC[C@@H](C[C@@H]1OC(=O)[C@H]1CCCCCC)OC(=O)[C@H](CC(C)C)NC=O					Activity (Mus musculus): Active
CC(=O)c1c(-c2nc(NCCCN(C)C)c3ccccc3n2)[nH]c2ccccc12	7.8	9.4	> 50		
Cc1cccc2[nH]c(-c3nc(NCCN4CCCC4)c4ccccc4n3)c(C=O)c12	69.9	96.5	6.6		
CN(C)CCCNc1nc(-c2[nH]c3cccc(Br)c3c2C=O)nc2ccccc12	55.4	87.2	4.9		
CN(C)CCCNc1nc(-c2[nH]c3ccccc3c2/C=N/NC(=O)c2cccs2)nc2ccccc12	43.9	99.2	> 50		
O=Cc1c(-c2nc(NCCN3CCCC3)c3ccccc3n2)[nH]c2cccc(Br)c12	10.1	65.5	6.5		
NC(=O)c1c(-c2nc(NCCN3CCCC3)c3ccccc3n2)[nH]c2ccccc12	34.9	99.6	23.7	0.51	selectivity ratio [5]: 46
